Residues, ends and D or L forms follow the SMILES beside them. *: point of attachment. Cbz = O=C(OCc1ccccc1)*
Legend:
[1] = molecular target: T1, L444P GC (Homo sapiens, UniProt P04062, L483P); assay: GC activity assay in L444P GC Gaucher patient-derived fibroblasts; format: cell-based
T1 construct: a L444P GC Gaucher fibroblast cell line (GM08760); host or cells: Gaucher patient-derived skin fibroblasts
T1 sequence (P04062 40-536 L483P): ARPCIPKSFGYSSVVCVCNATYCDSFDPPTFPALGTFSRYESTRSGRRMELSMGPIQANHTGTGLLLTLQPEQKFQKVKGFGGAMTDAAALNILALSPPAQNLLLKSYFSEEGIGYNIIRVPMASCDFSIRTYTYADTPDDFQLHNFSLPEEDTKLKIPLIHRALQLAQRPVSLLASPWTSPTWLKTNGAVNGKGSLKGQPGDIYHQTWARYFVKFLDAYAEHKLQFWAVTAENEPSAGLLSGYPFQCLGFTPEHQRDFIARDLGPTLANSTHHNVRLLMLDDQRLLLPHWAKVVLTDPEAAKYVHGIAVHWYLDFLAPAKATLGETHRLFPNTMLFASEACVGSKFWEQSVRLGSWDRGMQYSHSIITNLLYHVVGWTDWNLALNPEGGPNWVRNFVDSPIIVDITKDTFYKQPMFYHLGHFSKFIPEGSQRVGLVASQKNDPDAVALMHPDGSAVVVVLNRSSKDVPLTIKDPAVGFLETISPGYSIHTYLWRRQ

[2] = tested on: chaperone, CHOP and GC mRNA expression levels; assay: Quantitative RT-PCR in L444P GC fibroblasts; format: cell-based, human
From the text: The relative mRNA expression levels of representative cytoplasmic HSR-associated chaperones (Hsp40, Hsp70, Hsp90, Hsp27, αB-crystallin), ER lumenal UPR-associated chaperones (BiP, GRP94, calreticulin), and the ER chaperone calnexin were monitored and their reported levels were normalized to the levels in untreated cells (FIGS. 5A and B). The levels of glyceraldehyde-3-phosphate dehydrogenase, monitored as a housekeeping control, were unchanged in treated and untreated cells.
Quantitative RT-PCR. […] The forward and reverse primers for Hsp40, Hsp70, Hsp90, Hsp27, αB-crystallin (CRYAB), BiP, GRP94, calnexin (CNX), calreticulin (CRT), Xbp-1, and CHOP, and an endogenous housekeeping gene GAPDH are listed in Table 2. […] Each data point was evaluated in triplicate, and measured three times.

[3] = tested on: L444P GC; format: cell-based, human; conditions: MG-132 0.25 μM for 3 d; diltiazem 10 μM for 14 days
From the text: (§1) Immunofluorescence. Immunofluorescence has been previously described.
as §1

[4] = tested on: cleaved ATF6; assay: Western blot of ATF6 cleavage in L444P GC fibroblasts; format: cell-based, human; conditions: 0.8 μM; for cleaved ATF6 / activation of ATF6: 24 h
From the text: ATF6 responds to stress by regulated proteolysis in the Golgi, liberating a cytosolic fragment of ATF6 that activates a subset of UPR genes. Ron et al., Nat Rev Mol Cell Biol 8: 519-529, 2007; Schroeder et al., Ann Rev Biochem 74: 739-789, 2005. Cleavage of ATF6 was monitored by Western blot analysis. […] Our observation that ATF6 is constitutively activated in L444P GC fibroblasts is consistent with recent reports that ATF6a optimizes long term ER function to protect cells from chronic stress. Wu et al., Dev Cell 13: 351-364, 2007.
Western blot analyses. Cells were lysed with the complete lysis-M buffer containing complete protease inhibitor cocktail (Roche, Nutley, N.J.). Total cell protein was determined with Micro BCA assay reagent (Pierce, Rockford, Ill.) and each sample was diluted to the same protein concentration. Company specifications were followed for protein treatment with EndoH and PNGase F (New England Biolabs, Ipswich, Mass.). Aliquots of cell lysates were separated in a 10% SDS-PAGE gel and western blot analysis was performed using appropriate antibodies. Rabbit anti-Hsp70, anti-HSF1, and anti-actin were from Stressgen (Victoria, BC, Canada). Mouse monoclonal anti-GC 2E2 was from Novus Biologicals (Littleton, Colo.). Mouse monoclonal anti-ATF6 was from IMGENEX (San Diego, Calif.). Secondary goat anti-rabbit and goat anti-mouse HRP-conjugated antibodies were from Pierce. Blots were visualized using SuperSignal West Femto Maximum Sensitivity or West Pico Substrate (Pierce). The western blot bands of the endoH treated samples were quantified by Java Image processing and analysis software from the NIH (http://rsb.info.nih.gov/ij/).

[5] = tested on: Hsp70, HSF1, BiP, Hsp40, Hsp90; assay: Western blot of chaperone and HSF1 protein levels in L444P GC fibroblasts; format: cell-based, human
Method: To correlate changes in Hsp70 chaperone levels with the celastrol-mediated transcriptional increase in Hsp70, as well as to investigate the temporal dependence of the change in Hsp70 levels, L444P GC fibroblasts were subjected to a single celastrol exposure (0.8 μM) for the period indicated and Hsp70 expression levels in cell lysates were analyzed by Western blot analysis. […] Hsp70, a product of HSR activation, has been implicated in HSR autoregulation by binding to HSF1, thereby repressing heat shock gene transcription (FIG. 7). Morimoto, Genes Dev 12: 3788-3796, 1998; Westerheide et al., J Biol Chem 280: 33097-33100, 2005.
Since HSF1 is likely to be responsible for celastrol's induction of the HSR we monitored HSF1 levels. Westerheide et al., J Biol Chem 279: 56053-56060, 2004. […] Awasthi, et al., Invest Opthalmol Vis Sci 46: 2082-2091, 2005; Bush et al., J Biol Chem 272: 9086-9092, 1997.
Western blot analyses. […] Total cell protein was determined with Micro BCA assay reagent (Pierce, Rockford, Ill.) and each sample was diluted to the same protein concentration. […] The western blot bands of the endoH treated samples were quantified by Java Image processing and analysis software from the NIH (http://rsb.info.nih.gov/ij/).
Western blot. […] Total cell protein was measured using the Micro BCA assay reagent. […]

[6] = diltiazem 10 μM, 7-day treatment

Compound: CC(C)C[C@@H](C=O)NC(=O)[C@H](CC(C)C)NC(=O)[C@H](CC(C)C)NC(=O)OCc1ccccc1 [MG-132] (Cbz-Leu-Leu-Leu-aldehyde)
- L444P GC activity as % of WT GC activity ([1]; MG-132 single exposure, after 120 h (FIG. 2A)): ≈ 50.0%
- transcription of Hsp27 ([2]; 0.8 μM, 24 h): did not
- transcription of calnexin ([2]; 0.8 μM, 24 h): upregulated the transcription of calnexin significantly
- mRNA expression level of BiP ([2]; 0.8 μM, 2, 4, 6 and 24 h): BiP was also upregulated
- mRNA expression level of CHOP ([2]; 0.8 μM, 2, 4, 6 and 24 h): upregulated the mRNA expression level of CHOP significantly
- colocalization of L444P GC with lysosomal marker LAMP2 [3]: exhibited colocalization with the lysosomal marker LAMP2
- level of cleaved ATF6 ([4]; 2 h): increased the level of cleaved ATF6
- cleaved ATF6 / activation of ATF6 [4]: undetectable
- cleaved ATF6 / activation of ATF6 ([4]; listed as MG132): diminished the activation
- HSF1 protein levels ([5]; 0.8 μM, over 24 h): remained constant

Compound: COc1ccc([C@@H]2Sc3ccccc3N(CCN(C)C)C(=O)[C@@H]2OC(C)=O)cc1.Cl [diltiazem, Diltiazem hydrochloride]
- direct activation of lysosomal L444P GC ([1]; 1 μM to 100 μM, 1 h, intact cell assay): No activity increase was observed
- effect on L444P GC activity, intact cell GC activity assay ([1]; calcium channel blockers and ionotropic glutamate receptor inhibitors): increased L444P GC activity significantly
- L444P GC activity as % of normal cellular WT GC activity ([1]; diltiazem 10 μM, 5-day incubation, type II line (FIG. 17C, left panel)): ≈ 24%
- mRNA expression levels of Hsp70, GRP94, calnexin, and calreticulin [2, 6]: not changed significantly
- GC mRNA expression level vs untreated cells ([2]; diltiazem 10 μM, 6 h, 12 h, 1 day, 3 days and 5 days): No significant differences
- colocalization of L444P GC with lysosomal marker LAMP2 [3]: L444P GC colocalized with LAMP2
- protein expression levels of BiP, Hsp40, and Hsp90 [5, 6]: increased protein expression levels
